# Source: patent publication US12209087B2, “AKT1 modulators” (Alterome Therapeutics, Inc., priority 2022, dated 2025)
# Molecular target: T1, full length AKT E17K (Homo sapiens, UniProt P31749, E17K)
# T1 construct: host or cells: HEK-293 (ATCC CRL-1573)
# Assay: NanoBRET Target Engagement (TE) Assay
# Type: cell-based
# Details: competitive displacement of tracer in cells, read-out: AKT1 E17K IC50
# How it was run: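 Compound and tracer incubated 2 h before luminescence at donor 450 nm and acceptor 600 nm, with extracellular signal inhibited. EC50 by sigmoidal variable-slope regression.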
# T1 sequence (P31749 whole entry E17K): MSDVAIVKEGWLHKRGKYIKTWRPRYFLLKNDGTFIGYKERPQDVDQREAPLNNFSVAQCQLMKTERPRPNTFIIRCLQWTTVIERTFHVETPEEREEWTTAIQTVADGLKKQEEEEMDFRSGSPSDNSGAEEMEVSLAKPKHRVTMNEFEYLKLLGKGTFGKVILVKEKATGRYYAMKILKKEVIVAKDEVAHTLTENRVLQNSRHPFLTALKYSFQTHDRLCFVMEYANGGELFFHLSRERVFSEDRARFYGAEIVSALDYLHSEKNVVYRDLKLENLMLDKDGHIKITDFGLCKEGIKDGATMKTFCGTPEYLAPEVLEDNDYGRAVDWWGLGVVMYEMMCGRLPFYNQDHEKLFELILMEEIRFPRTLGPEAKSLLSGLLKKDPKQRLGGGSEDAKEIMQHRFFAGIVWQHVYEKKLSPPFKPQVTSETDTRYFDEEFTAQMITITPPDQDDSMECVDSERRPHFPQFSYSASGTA
row,Structure (SMILES),IC50
1,"Cc1noc(C)c1-c1ccc2nc(-c3cccnc3N)n(-c3ccc(CN4CCC(Nc5ccnc(C#N)n5)CC4)cc3)c2n1 [Example 473, 4-((1-(4-(2-(2-Aminopyridin-3-yl)-5-(3,5-dimethylisoxazol-4-yl)-3H-imidazo[4,5-b]pyridin-3-yl)benzyl)piperidin-4-yl)amino)pyrimidine-2-carbonitrile]",< 15 nM
2,"N#Cc1nccc(NC2CCN(Cc3ccc(-n4c(-c5cccnc5N)nc5ccc(-c6cnn(C(F)F)c6)nc54)cc3)CC2)n1 [Example 474, 4-((1-(4-(2-(2-Aminopyridin-3-yl)-5-(1-(difluoromethyl)-1H-pyrazol-4-yl)-3H-imidazo[4,5-b]pyridin-3-yl)benzyl)piperidin-4-yl)amino)pyrimidine-2-carbonitrile]",< 15 nM
3,"N#Cc1nccc(NC2CCN(Cc3ccc(-n4c(-c5cccnc5N)nc5ccc(-c6ccc(F)cc6F)nc54)cc3)CC2)n1 [Example 475, 4-((1-(4-(2-(2-Aminopyridin-3-yl)-5-(2,4-difluorophenyl)-3H-imidazo[4,5-b]pyridin-3-yl)benzyl)piperidin-4-yl)amino)pyrimidine-2-carbonitrile]",< 15 nM
4,"COc1cccc(-c2ccc3nc(-c4cccnc4N)n(-c4ccc(CN5CCC(Nc6ccnc(C#N)n6)CC5)cc4)c3n2)n1 [Example 476, 4-((1-(4-(2-(2-Aminopyridin-3-yl)-5-(6-methoxypyridin-2-yl)-3H-imidazo[4,5-b]pyridin-3-yl)benzyl)piperidin-4-yl)amino)pyrimidine-2-carbonitrile]",< 15 nM
5,"Cc1cc(-c2ccc3nc(-c4cccnc4N)n(-c4ccc(CN5CCC(Nc6ccnc(C#N)n6)CC5)cc4)c3n2)ccn1 [Example 477, 4-((1-(4-(2-(2-Aminopyridin-3-yl)-5-(2-methylpyridin-4-yl)-3H-imidazo[4,5-b]pyridin-3-yl)benzyl)piperidin-4-yl)amino)pyrimidine-2-carbonitrile]",< 15 nM
6,"Cc1cncc(-c2ccc3nc(-c4cccnc4N)n(-c4ccc(CN5CCC(Nc6ccnc(C#N)n6)CC5)cc4)c3n2)c1 [Example 478, 4-((1-(4-(2-(2-Aminopyridin-3-yl)-5-(5-methylpyridin-3-yl)-3H-imidazo[4,5-b]pyridin-3-yl)benzyl)piperidin-4-yl)amino)pyrimidine-2-carbonitrile]",< 15 nM
7,"CC(C)n1cc(-c2ccc3nc(-c4cccnc4N)n(-c4ccc(CN5CCC(Nc6ccnc(C#N)n6)CC5)cc4)c3n2)cn1 [Example 479, 4-((1-(4-(2-(2-Aminopyridin-3-yl)-5-(1-isopropyl-1H-pyrazol-4-yl)-3H-imidazo[4,5-b]pyridin-3-yl)benzyl)piperidin-4-yl)amino)pyrimidine-2-carbonitrile]",< 15 nM
8,"N#Cc1nccc(NC2CCN(Cc3ccc(-n4c(-c5cccnc5N)nc5ccc(-c6cnsc6)nc54)cc3)CC2)n1 [Example 480, 4-((1-(4-(2-(2-Aminopyridin-3-yl)-5-(isothiazol-4-yl)-3H-imidazo[4,5-b]pyridin-3-yl)benzyl)piperidin-4-yl)amino)pyrimidine-2-carbonitrile]",< 15 nM
9,"Cn1cc(-c2ccc3nc(-c4cccnc4N)n(-c4ccc(CN5CCC(Nc6ccnc(C#N)n6)CC5)cc4)c3n2)cc1C#N [Example 481, 4-((1-(4-(2-(2-Aminopyridin-3-yl)-5-(5-cyano-1-methyl-1H-pyrrol-3-yl)-3H-imidazo[4,5-b]pyridin-3-yl)benzyl)piperidin-4-yl)amino)pyrimidine-2-carbonitrile]",< 15 nM
10,"N#Cc1nccc(NC2CCN(Cc3ccc(-n4c(-c5cccnc5N)nc5ccc(-c6cscn6)nc54)cc3)CC2)n1 [Example 482, 4-((1-(4-(2-(2-Aminopyridin-3-yl)-5-(thiazol-4-yl)-3H-imidazo[4,5-b]pyridin-3-yl)benzyl)piperidin-4-yl)amino)pyrimidine-2-carbonitrile]",< 15 nM
11,"N#Cc1nccc(NC2CCN(Cc3ccc(-n4c(-c5cccnc5N)nc5ccc(-c6ccns6)nc54)cc3)CC2)n1 [Example 483, 4-((1-(4-(2-(2-Aminopyridin-3-yl)-5-(isothiazol-5-yl)-3H-imidazo[4,5-b]pyridin-3-yl)benzyl)piperidin-4-yl)amino)pyrimidine-2-carbonitrile]",< 15 nM
12,"Cc1c(-c2ccc3nc(-c4cccnc4N)n(-c4ccc(CN5CCC(Nc6ccnc(C#N)n6)CC5)cc4)c3n2)cnn1C [Example 484, 4-((1-(4-(2-(2-Aminopyridin-3-yl)-5-(1,5-dimethyl-1H-pyrazol-4-yl)-3H-imidazo[4,5-b]pyridin-3-yl)benzyl)piperidin-4-yl)amino)pyrimidine-2-carbonitrile]",< 15 nM
13,"N#Cc1nccc(NC2CCN(Cc3ccc(-n4c(-c5cccnc5N)nc5ccc(Br)nc54)cc3)CC2)n1 [Example 485, 4-((1-(4-(2-(2-Aminopyridin-3-yl)-5-bromo-3H-imidazo[4,5-b]pyridin-3-yl)benzyl)piperidin-4-yl)amino)pyrimidine-2-carbonitrile]",< 15 nM
14,"[2H]C([2H])(c1ccc(-n2c(-c3cccnc3N)nc3ccc(Br)nc32)cc1)N1CCC(Nc2ccnc(C#N)n2)CC1 [Example 486, 4-((1-((4-(2-(2-Aminopyridin-3-yl)-5-bromo-3H-imidazo[4,5-b]pyridin-3-yl)phenyl)methyl-d2)piperidin-4-yl)amino)pyrimidine-2-carbonitrile]",< 15 nM
15,"N#Cc1ncnc(NC2CCN(Cc3ccc(-n4c(-c5cccnc5N)nc5ccc(-c6ccc(F)cc6)nc54)cc3)CC2)n1 [Example 487, 4-((1-(4-(2-(2-Aminopyridin-3-yl)-5-(4-fluorophenyl)-3H-imidazo[4,5-b]pyridin-3-yl)benzyl)piperidin-4-yl)amino)-1,3,5-triazine-2-carbonitrile]",< 15 nM
16,"[2H]C([2H])(c1ccc(-n2c(-c3cccnc3N)nc3ccc(-c4ccc(F)cc4)nc32)cc1)N1CCC(N(C)c2ccnc(C#N)n2)CC1 [Example 488, 4-((1-((4-(2-(2-Aminopyridin-3-yl)-5-(4-fluorophenyl)-3H-imidazo[4,5-b]pyridin-3-yl)phenyl)methyl-d2)piperidin-4-yl)(methyl)amino)pyrimidine-2-carbonitrile]",< 15 nM
17,"[2H]C([2H])(c1ccc(-n2c(-c3cccnc3N)nc3ccc(-c4ccc(F)cc4)nc32)cc1)N1CCC(Nc2ccnc(C#N)n2)CC1 [Example 489, 4-((1-((4-(2-(2-Aminopyridin-3-yl)-5-(4-fluorophenyl)-3H-imidazo[4,5-b]pyridin-3-yl)phenyl)methyl-d2)piperidin-4-yl)amino)pyrimidine-2-carbonitrile]",< 15 nM
18,"N#Cc1nccc(N2CC3(CCN(Cc4ccc(-n5c(-c6cccnc6N)nc6ccc(-c7ccc(F)cc7)nc65)cc4)CC3)C2)n1 [Example 490, 4-(7-(4-(2-(2-Aminopyridin-3-yl)-5-(4-fluorophenyl)-3H-imidazo[4,5-b]pyridin-3-yl)benzyl)-2,7-diazaspiro[3.5]nonan-2-yl)pyrimidine-2-carbonitrile]",< 15 nM
19,"N#Cc1nccc(N2CCC3(CC2)CN(Cc2ccc(-n4c(-c5cccnc5N)nc5ccc(-c6ccc(F)cc6)nc54)cc2)C3)n1 [Example 491, 4-(2-(4-(2-(2-Aminopyridin-3-yl)-5-(4-fluorophenyl)-3H-imidazo[4,5-b]pyridin-3-yl)benzyl)-2,7-diazaspiro[3.5]nonan-7-yl)pyrimidine-2-carbonitrile]",< 15 nM
20,"C[S+]([O-])c1ccc2nc(-c3cccnc3N)n(-c3ccc(CN4CCC(Nc5ccnc(C#N)n5)CC4)cc3)c2n1 (stereo not drawn) [Example 492, 4-((1-(4-(2-(2-Aminopyridin-3-yl)-5-(methylsulfinyl)-3H-imidazo[4,5-b]pyridin-3-yl)benzyl)piperidin-4-yl)amino)pyrimidine-2-carbonitrile]",60 to 600 nM
21,"Cc1cc(C)c2nc(-c3cccnc3N)n(-c3ccc(CN4CCC(Nc5ccnc(C#N)n5)CC4)cc3)c2n1 [Example 493, 4-((1-(4-(2-(2-Aminopyridin-3-yl)-5,7-dimethyl-3H-imidazo[4,5-b]pyridin-3-yl)benzyl)piperidin-4-yl)amino)pyrimidine-2-carbonitrile]",< 15 nM
22,"N#Cc1nccc(NC2CCN(Cc3ccc(-n4c(-c5cccnc5N)nc5c(O)ncnc54)cc3)CC2)n1 [Example 494, 4-((1-(4-(8-(2-aminopyridin-3-yl)-6-hydroxy-9H-purin-9-yl)benzyl)piperidin-4-yl)amino)pyrimidine-2-carbonitrile]",600 to 10000 nM
23,"N#Cc1nccc(NC2CCN(Cc3ccc(-n4c(-c5cccnc5N)nc5ccc(-c6ccccn6)nc54)cc3)CC2)n1 [Example 495, 4-((1-(4-(2-(2-Aminopyridin-3-yl)-5-(pyridin-2-yl)-3H-imidazo[4,5-b]pyridin-3-yl)benzyl)piperidin-4-yl)amino)pyrimidine-2-carbonitrile]",< 15 nM
24,"N#Cc1nccc(NC2CCN(Cc3ccc(-n4c(-c5cccnc5N)nc5ccc(O)nc54)cc3)CC2)n1 [Example 496, 4-((1-(4-(2-(2-Aminopyridin-3-yl)-5-hydroxy-3H-imidazo[4,5-b]pyridin-3-yl)benzyl)piperidin-4-yl)amino)pyrimidine-2-carbonitrile]",15 to 60 nM
25,"N#Cc1nccc(NC2CCN(Cc3ccc(-n4c(-c5cccnc5N)nc5ccc(N)nc54)cc3)CC2)n1 [Example 497, 4-((1-(4-(5-Amino-2-(2-aminopyridin-3-yl)-3H-imidazo[4,5-b]pyridin-3-yl)benzyl)piperidin-4-yl)amino)pyrimidine-2-carbonitrile]",15 to 60 nM
26,"N#Cc1nccc(NC2CCN(Cc3ccc(-n4c(-c5cccnc5N)nc5ccc(-c6ccc(F)cc6Cl)nc54)cc3)CC2)n1 [Example 498, 4-((1-(4-(2-(2-Aminopyridin-3-yl)-5-(2-chloro-4-fluorophenyl)-3H-imidazo[4,5-b]pyridin-3-yl)benzyl)piperidin-4-yl)amino)pyrimidine-2-carbonitrile]",15 to 60 nM
27,"Cc1cc2nc(-c3cccnc3N)n(-c3ccc(CN4CCC(Nc5ccnc(C#N)n5)CC4)cc3)c2nc1-c1ccc(F)cc1 [Example 499, 4-((1-(4-(2-(2-aminopyridin-3-yl)-5-(4-fluorophenyl)-6-methyl-3H-imidazo[4,5-b]pyridin-3-yl)benzyl)piperidin-4-yl)amino)pyrimidine-2-carbonitrile]",< 15 nM
